In patent US20200247808A1, “Heterocyclic Tec-Family Kinase Inhibitors” (GB005, Inc., priority 2015, published 2020):
“Also recorded” adds a separate entry of the source.

Columns and labels:
[1] = test system: collagen-induced arthritis; assay: Mouse CIA (collagen-induced arthritis) model; assay type: in vivo, mouse (B10RIII); conditions: mice, oral gavage 10 and 30 mg/kg, BID, to RA day 12
Protocol: Mouse CIA model was performed using the methods described by Trentham D E, Townes A S, Kang A H. Autoimmunity to Type II Collagen: An Experimental Model of Arthritis. J Exp Med 1977; 857-868, and Bendele A M. Animal Models of Rheumatoid Arthritis. J Musculoskel Interact 2001; 377-385.
[…]. On experimental day 0 mice were anaesthetized with isoflurane and the dorsal surface was shaved. Collagen, emulsified in Freund's complete adjuvant (CFA) supplemented with additional mycobacterium tuberculosis (TB) H37Ra, was injected intradermally at the base of the tail (0.15 mL / animal; 2 mg/mL collagen and 2.5 mg/mL TB in CFA). This CFA treatment was repeated on day 15.
From day 15 to the end of the study animals were scored daily for signs of arthritis. On the first day of disease (RA Day 1) animals were recruited to the study and grouped using a balanced design based on arthritis score. Once recruited, animals were weighed and dosed twice daily by gavage (PO, BID). Recruited animals were then scored twice a week on RA days 1, 5, 8 and 12.
At the end of the study (RA day 12) animals were weighed and scored.

[2] = in vitro; conditions: human, liver microsomes
Protocol: Intrinsic liver microsomal stability was determined using cryopreserved human liver microsomes. […] Following centrifugation 100 μL of the supernatant was transferred to a 96-well plate and analyzed by LC-MS/MS using test-article specific methods. Controls included absence of microsomes or co-factors or use of heat-denatured microsomes. Intrinsic clearance was calculated using the formula: (In(% Time 0/% Time 1)/T1−T0)×Volume of incubation/protein in the incubation.

| microsomal CLint at 1 μM [2] [µL/min/mg] | SMILES | Effect on arthritis in mouse CIA model [1] |
| --- | --- | --- |
| 34.9 | CC#CC(=O)N[C@H]1C[C@@H](n2nc(-c3ccc(Oc4ccccc4)cc3)c3c(N)ncnc32)C1 [Compound 1] | prevented the progression of arthritis; also recorded: effective in the mouse collagen-induced arthritis model |
| 15.6 | C=CC(=O)N[C@H]1C[C@@H](n2nc(-c3ccc(Oc4ccccc4)cc3)c3c(N)ncnc32)C1 [Compound 2] | prevented the progression of arthritis; also recorded: effective in the mouse collagen-induced arthritis model |
